Measurements published in patent US20230255943A1, “MMP-9 AND MMP-12 INHIBITION FOR TREATING SPINAL CORD INJURY OR RELATED INJURY TO NEUROLOGICAL TISSUE” (The University of Birmingham, priority 2020, published 2023).

Tested on: SCI-induced oedema
Assay: Example 3: spinal cord water content with aquaporin-4 relocalisation inhibitors
Details: in vivo
Description: The lesion site+3 mm either side for mice and the lesion site+5 mm either side for the rat DC model were dissected out and the water content of the spinal cord (as a measure of oedema) was determined at 3 days after DC and CC SCI, as described previously (S. Li, C. H. Tator, Effects of MK801 on evoked potentials, spinal cord blood flow and cord edema in acute spinal cord injury in rats. Spinal Cord 37, 820-832 (1999)). Spinal cords containing the lesion site were weighed on aluminium foil, dried at 105° C. for 24 hr, and re-weighed. The percent water content was calculated as: water content (%)=[(wet weight-dry weight)/wet weight]×100%.
Using similar techniques to those described in Example 1, the water content in the spinal cord as a measure of injury-induced oedema was determined for various agents and aquaporin-4 inhibitors, namely TFP, PKAi, PKCi and TGN-020—see FIG. 21.

O=C(Nc1nncs1)c1cccnc1 [TGN-020, N-1,3,4-Thiadiazol-2-yl-3-pyridinecarboxamide]
SCI-induced oedema, water content (FIG. 21): suppress SCI-induced oedema
